Laboratory results reported in patent publication US20130136691A1, “GASTRIN […] PEPTIDE COMPOUNDS” (priority 2008, published 2013).

What was measured:
[1] = system: GRP receptor binding in T47D human breast cancer cells; assay: Effect of drug treatment on GRP receptor binding (177Lu-AMBA) and proliferation in T-47D cells; assay type: cell-based; details: T-47D, relative to untreated control
Description: T-47D breast cancer cells (human metastatic mammary gland ductal adenocarcinoma isolated from pleural effusion, ER+, PR+) were obtained from the American Type Culture Collection.

[2] = system: GRP receptor binding in ZR-75-1 human breast cancer cells; assay: 4-hydroxytamoxifen effect on 177Lu-AMBA binding and proliferation in ZR-75-1 cells (2 to 12 days); assay type: cell-based; details: for % Change in Proliferation / % change in 177Lu-AMBA Uptake: ZR-75-1 cells
Experimental: Method: ZR-75-1 breast cancer cell line (human ductal carcinoma with estrogen receptor) was obtained from the American Type Culture Collection (ATCC).
ZR-75-1 cells were plated on Day 0 (40k/well 96-well PE Scintiplate). […] To determine the cell numbers and the proliferation, 100 uL of 10% CCK-F solution in DPBS (Molecular technologies) was added to the same plate, incubated for 30 min at 37° C. and the relative fluorescence (RFU) measured at 535 nm. Based on the cell numbers and the ^177Lu-binding, the Bmax (fmoles bound/million cells) was calculated.
ZR-75-1 breast cancer cell lines were cultured as described above.
(§1) The ZR-75-1 cells were seeded at 15K per well onto two 96-well scintiplates on the same day as 2 days study.

[3] = system: ZR-75-1 human breast cancer cells; assay: Glucose uptake (2-NBDG) in ZR-75-1 cells after 4-hydroxytamoxifen; assay type: cell-based; details: for % Change in 2-NBDG: ZR-75-1 cells
Experimental: For the glucose uptake study, a fluorescently labeled2-deoxyglucose derivative (2-NBDG) was used. […] The cell numbers were determined with CCK-F treatment as described above.
as §1

[4] = system: GRP receptor binding in PC-3 prostate cancer cells; assay: Effect of drug treatment on GRP receptor binding (177Lu-AMBA) and proliferation in PC-3 cells; details: PC-3
Experimental: (§2) RPMI 1640 supplemented with 20 mM HEPES, 0.1% BSA (w/v), 0.5 mM PMSF (AEBSF), bacitracin (50 mg/500 ml), pH 7.4.
(§3) Treatment: BT-474 cells were plated on Day 0 (see above); approximately 24-48 h after plating, treatment Days 1 and 2 (DT1, DT2), the medium was removed and replaced with fresh growth medium (control), or growth medium with the addition of lapatinib (0.1-1.0 μM). […] Incubations were stopped by the addition of 200 μL of ice-cold binding buffer. Plates were washed three more times with binding buffer, 140 μL of scintillation fluid was added to each well, the plates were sealed and analyzed on a Microp plate reader (Microbeta Trilux, Perkin-Elmer).
(§4) Treatment: BT-474 cells were plated on Day 0 and treated on Days 1 and 2 (DT1, DT2).

[5] = system: GRP receptor binding in BT-474 human breast cancer cells; assay: Effect of drug treatment on GRP receptor binding (177Lu-AMBA) and proliferation in BT-474 cells; details: BT-474; relative to untreated control; drug 0.1-1.0 μM (4-OH Tamoxifen 0.001-0.1 μM)
Experimental: Cells for binding experiments were plated on Day 0 at 5.6×10^4 cells/cm^2 in 96-well white/clear bottom microtiter plates (Falcon Optilux-I), or 96 well black/clear collagen I cellware plates (Beckton Dickinson Biocoat).
as §2, §3, §4

[6] = system: BT-474 tumor-bearing nude mice; details: 1 hr; + Tamoxifen/+ ES, day 14, n = 3; control 2.18 ± 0.63
Experimental: Female nude mice ([Ncr]-Foxn1) received hormone supplementation by administration of 17β-estradiol via 60 day time released pellets implanted s.c. (0.72 mg/60 Day release; 0.6 mg/kg; Innovative Research of America, Sarasota, Fla.). Four to seven days after beginning hormone treatment, the mice were xenografted with ten million BT-474 cells in Matrigel (1:1 with PBS) s.c. to the flank. The 1713 estradiol is required for tumor cell growth in this model.
Control mice received vehicle-only time release pellets (in addition to hormone support).

[7] = system: human PC-3 nude mouse model; assay type: in vivo; details: i.v.
Experimental: 10-50 μCi of the HPLC purified compounds were administered to each mouse by i.v. tail vein injection, n=4 per group. At 1 h, 1 and 7 days post injection, the mice were terminated and the organs and tissues were harvested. Radioactivity was assayed in a gamma counter. The data was expressed as percentage of the total administered radioactivity (% ID) for the urine combined with the bladder, as well as for the blood pool; and percentage of the total administered radioactivity per gram (% ID/g) for all the other tested organs.

[8] = system: GRP receptor binding in PC-3 prostate cancer cells; assay: Single plate assay: dasatinib effect on 177Lu-AMBA binding (Bmax) and proliferation (CCK-F) in PC-3 cells; assay type: cell-based; details: Homo sapiens, 100 nM Dasatinib, read-out: inhibition of growth (cell proliferation)
Experimental: The cells were plated on Day 0 (7.5k/well 96-well PE Scintiplate). […] To determine the cell numbers and the proliferation, 100 uL of 10% CCK-F solution in DPBS (Molecular technologies) was added to the same plate, incubated for 30 min at 37° C. and the relative fluorescence (RFU) measured at 535 nm. Base on the cell numbers and the ^177Lu-binding, the Bmax (fmoles bound/million cells) was calculated, and the results compared with the control.

[9] = target: T1, human GRP-R (Homo sapiens, UniProt P30550); assay: Competition assay with 125I-BBN for GRP-R in PC3 cells (IC50); assay type: binding; details: competition with 125I-BBN
T1 construct: host or cells: PC3 / PC-3 human prostate cancer cells (intact, plated)
T1 sequence (P30550 whole entry): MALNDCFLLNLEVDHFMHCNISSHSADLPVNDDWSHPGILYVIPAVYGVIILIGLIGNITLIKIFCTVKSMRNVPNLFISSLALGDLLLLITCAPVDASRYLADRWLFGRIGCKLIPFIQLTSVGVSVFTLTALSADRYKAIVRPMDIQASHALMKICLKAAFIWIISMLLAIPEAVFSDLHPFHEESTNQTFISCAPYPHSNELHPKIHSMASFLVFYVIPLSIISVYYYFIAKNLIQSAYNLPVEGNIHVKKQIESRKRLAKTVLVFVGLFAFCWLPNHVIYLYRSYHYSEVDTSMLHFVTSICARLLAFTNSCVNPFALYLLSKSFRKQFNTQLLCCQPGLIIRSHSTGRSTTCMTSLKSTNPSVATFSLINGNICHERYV

[10] = breast cancer (30% have HER2/neu, 30% treated respond); cited from earlier work
[11] = drug 0.1-1.0 μM (4-OH Tamoxifen 0.001-0.1 μM)
[12] = ZR-75-1, 1-100 nM, treatment on days 2 and 3

CC/C(=C(\c1ccc(O)cc1)c1ccc(OCCN(C)C)cc1)c1ccccc1 [4-OH Tamoxifen]
decrease in 177Lu-AMBA binding (GRP receptor specific signal per cell) [1, 11]: up to 35% | inhibition of proliferation, long-term treatment ([2]; ZR-75-1, 100 nM everyday, by 12 day): 28% | 177Lu-AMBA uptake, long-term treatment, in words ([2]; ZR-75-1, 100 nM, 2-12 days): significant reduction | cell proliferation, in words [2, 12]: little change | % Change in Proliferation ([2]; 100 nM, 5 days of treatment): −11.3 (±8.3) % | % change in 177Lu-AMBA Uptake ([2]; 100 nM, 5 days of treatment): −77.4 (+1.6) % | % Change in Proliferation ([2]; 100 nM, 12 days of treatment): −28.0 (±14.1) % | % change in 177Lu-AMBA Uptake ([2]; 100 nM, 12 days of treatment): −72.3 (±14.6) % | % Change in Proliferation ([2]; 2 days of treatment): −7.2 (±3.8% | % change in 177Lu-AMBA Uptake ([2]; 2 days of treatment): −65.9 (±9.7) % | 2-NBDG uptake, long-term treatment, in words ([3]; ZR-75-1, 100 nM, 2-12 days): smaller changes | decrease in glycolysis (2-NBDG uptake) [3, 12]: ~20% | % Change in 2-NBDG ([3]; 100 nM, 5 days of treatment): −47.5% | % Change in 2-NBDG ([3]; 100 nM, 12 days of treatment): 14.5% | GRP receptor specific signal per cell (177Lu-AMBA binding) versus untreated controls, in words [4, 11]: no change | decrease in 177Lu-AMBA binding (GRP receptor specific signal per cell) [5]: up to 73%

CC/C(=C(\c1ccccc1)c1ccc(OCCN(C)C)cc1)c1ccccc1 [Tamoxifen]
177Lu-AMBA in Tumor (% ID/g) [6]: 0.70 ± 0.39 % ID/g

CC1(N(CC(=O)O)CC(=O)O)CN(CC(=O)O)[C@@H]2CCCC[C@H]2N(CC(=O)O)C1 [XX100]
Blood 7 d % ID (*72 h timepoint) ([7]; 177Lu complex, 72 h timepoint): 0.00 ± 0.00 % ID | Tumor 7 d % ID/g (*72 h timepoint) ([7]; 177Lu complex, 72 h timepoint): 0.01 ± 0.00 % ID/g | distribution of radioactivity (in words) ([7]; Lu-177 complexes, 1 h, 1 and 7 days): rapidly cleared from the body with little residual localization in any organs or tissue

Cc1nc(Nc2ncc(C(=O)Nc3c(C)cccc3Cl)s2)cc(N2CCN(CCO)CC2)n1 [dasatinib]
increase in 177Lu-AMBA binding (GRP receptor specific signal per cell) ([1]; drug 0.1-1.0 μM (gefitinib 0.1-10 μM)): up to 500% | inhibition at 0.1 µM [8]: ≤ 33% | increase in 177Lu-AMBA binding (GRP receptor specific signal per cell) ([4]; relative to untreated control, drug 0.1-1.0 μM): up to 250%

DO3A-Gly-Abz-4-Gln-Trp-Ala-Val-Gly-His-Phe-Leu-NH2 [Compound L300]
competition for GRP-R in PC3 cells (in words) [9]: high activity at the GRP-R

Herceptin
overall response [10]: 9%

N-[(3β,5β,12α)-3-[[[4,7,10-Tris(carboxymethyl)-1,4,7,10-tetraazacyclododec-1-yl]acetyl]amino]-glycyl-4-aminobenzoyl-L-glutaminyl-L-tryptophyl-L-alanyl-L-valyl-glycyl-L-histidyl-L-phenylalanyl-L-methioninamide [Compound L228]
competition for GRP-R in PC3 cells (in words) [9]: maintains GRP-R activity

N-[(3β,5β,12α)-3-[[[4,7,10-Tris(carboxymethyl)-1,4,7,10-tetraazacyclododec-1-yl]acetyl]amino]-glycyl-4-aminobenzoyl-L-glutaminyl-L-tryptophyl-L-alanyl-glycyl-L-histidyl-L-phenylalanyl-L-leucinamide [Compound L224]
competition for GRP-R in PC3 cells (in words) [9]: complete loss of binding

N-[(3β,5β,12α)-3-[[[4,7,10-Tris(carboxymethyl)-1,4,7,10-tetraazacyclododec-1-yl]acetyl]amino]-glycyl-4-aminobenzoyl-L-leucyl-L-tryptophyl-L-alanyl-L-valinyl-glycyl-L-serinyl-L-phenylalanyl-L-methioninamide [Compound L225]
competition for GRP-R in PC3 cells (in words) [9]: reduces competition at the GRP-R
